# Assay results taken from patent US20050112573A1, “Method of detecting toxic substance” (priority 2001, published 2005).
# System: yeast genes (level of expressed mRNA)
# Test: DNA chip analysis of expressed mRNA of yeast genes after 2 h culture with a toxic chemical substance
# Format: cell-based, Saccharomyces cerevisiae S288C
# Experimental: Yeast (Saccharomyces cerevtisiae S288C (α SUC2mal mel gap2 CUP1)) were cultured at 25° C. on YPD medium (yeast extract 1%, polypepton 2%, glucose 2%). One of toxic chemical substances was added to the cell at logarithmic growth phase, and the cell was further cultured for two hours. Cell was cultured without any chemical substance in the same condition, and was used as control. Concentrations of the chemical substances were defined to inhibit the growth of the yeast but not lead to death.
# After the completion of cultivation, the culture was centrifuged to collect the cells. To the cells, sodium acetate buffer (50 mM sodium acetate, 10 mM EDTA, 1% SDS) was added, and the mixture was shaken at 65° C. for five minutes, followed by returning to room temperature, and obtaining the supernatant, which procedure was repeated two times. To the supernatant, ½ amount of a solution of phenol/chloroform was added, and the mixture was centrifuged to give a supernatant, which was added with an equal amount of chloroform, and the mixture was centrifuged to give a supernatant. To the supernatant, an equal amount of isopropanol containing 0.3 M sodium acetate was added, and the mixture was allowed to stand at room temperature for 30 minutes, after which the mixture was centrifuged to give a sediment of the whole RNAs. Seventy % ethanol was added to the sediment, and the mixture was again centrifuged to give a sediment, which was then dried and dissolved in water. mRNA was isolated from the whole RNAs as followings. In view of the fact that a poly A chain is attached to the 3′ terminus of mRNA, a polynucleotide having a poly T structure which was immobilized on the surface of latex beads was used to trap the mRNA, and then the mRNA was washed and eluted with spine column (Oligotex-dT30<Super>mRNA Purification Kit, Takara). Reverse transcription of the mRNA was conducted with a reverse transcriptase (Super Script II Reverse Transcriptase; catalogue No. 18064-014, GibcoBRL) using fluorescence-labeled nucleotides to give cDNAs that were introduced with Cy3-dUTP or Cy5-dUTP during the reverse transcription.
# The labeled cDNAs were dissolved in TE buffer (10 mM Tris-HCl/1 mM EDTA, pH8.0), and the solution was dropped on the DNA chip containing the whole genes of yeast (DNA Chip Research Inc. Japan) so that the cDNAs were hybridized on the DNA chip at 65° C. for over 12 hours. The fluoresces intensity of the DNA chip was read with a scanner, and the ratio relative to the fluorescence intensity resulting from the absence of chemical substance was estimated as the following, which is shown in Tables 1 to 9: [formula]
# In the Tables, “Intensity” indicated in the rightmost column is a value of the level of expressed mRNA of each gene in control cells as divided by the average level of the expressions of the whole genes.
structure (smiles),measurement,setting,value
"C[S+](C)[O-] [(15), dimethylsulfoxide]",The level of expressed mRNA in the presence of chemical substance/absence: YDR133C,gene YDR133C,0.6
same,The level of expressed mRNA in the presence of chemical substance/absence: YDR140W,gene YDR140W,0.9
same,The level of expressed mRNA in the presence of chemical substance/absence: YDR221W,gene YDR221W,1.0
same,The level of expressed mRNA in the presence of chemical substance/absence: YDR250C,gene YDR250C,0.7
same,The level of expressed mRNA in the presence of chemical substance/absence: YDR271C,gene YDR271C,1.3
same,The level of expressed mRNA in the presence of chemical substance/absence: YDR278C,gene YDR278C,0.7
same,The level of expressed mRNA in the presence of chemical substance/absence: YDR281C,gene YDR281C,0.3
same,The level of expressed mRNA in the presence of chemical substance/absence: YDR316W,gene YDR316W,1.3
same,The level of expressed mRNA in the presence of chemical substance/absence: YDR338C,gene YDR338C,0.8
same,The level of expressed mRNA in the presence of chemical substance/absence: YDR366C,gene YDR366C,1.4
same,level of expressed mRNA in the presence of chemical substance/in its absence,gene YDR380W,2.4
same,level of expressed mRNA in the presence of chemical substance/in its absence,gene YDR410C,1.2
same,The level of expressed mRNA in the presence of chemical substance/absence: YDR421W,gene YDR421W,1.9
same,The level of expressed mRNA in the presence of chemical substance/absence: YDR425W,gene YDR425W,1.3
same,The level of expressed mRNA in the presence of chemical substance/absence: YDR485C,gene YDR485C,1.3
same,level of expressed mRNA in the presence of chemical substance/in its absence,gene YDR487C,1.0
same,level of expressed mRNA in the presence of chemical substance/in its absence,gene YDR502C,8.2
same,The level of expressed mRNA in the presence of chemical substance/absence: YDR504C,gene YDR504C,1.2
same,level of expressed mRNA in the presence of chemical substance/in its absence,gene YEL011W,0.4
same,level of expressed mRNA in the presence of chemical substance/in its absence,gene YEL020C,1.4
same,The level of expressed mRNA in the presence of chemical substance/absence: YEL044W,gene YEL044W,0.6
same,level of expressed mRNA in the presence of chemical substance/in its absence,gene YER026C,4.0
same,level of expressed mRNA in the presence of chemical substance/in its absence,gene YER069W,2.4
same,The level of expressed mRNA in the presence of chemical substance/absence: YER092W,gene YER092W,1.0
same,The level of expressed mRNA in the presence of chemical substance/absence: YER182W,gene YER182W,0.5
same,The level of expressed mRNA in the presence of chemical substance/absence: YFL042C,gene YFL042C,1.1
same,level of expressed mRNA in the presence of chemical substance/in its absence,gene YFR015C,0.4
same,The level of expressed mRNA in the presence of chemical substance/absence: YFR026C,gene YFR026C,2.3
same,The level of expressed mRNA in the presence of chemical substance/absence: YFR056C,gene YFR056C,0.9
same,level of expressed mRNA in the presence of chemical substance/in its absence,gene YGL001C,0.9
same,level of expressed mRNA in the presence of chemical substance/in its absence,gene YGL022W,4.0
same,level of expressed mRNA in the presence of chemical substance/in its absence,gene YGL039W,1.5
same,The level of expressed mRNA in the presence of chemical substance/absence: YGL041C,gene YGL041C,0.7
same,The level of expressed mRNA in the presence of chemical substance/absence: YGL045W,gene YGL045W,1.5
same,The level of expressed mRNA in the presence of chemical substance/absence: YGL057C,gene YGL057C,0.7
same,The level of expressed mRNA in the presence of chemical substance/absence: YGL088W,gene YGL088W,0.4
same,level of expressed mRNA in the presence of chemical substance/in its absence,gene YGL104C,0.9
same,level of expressed mRNA in the presence of chemical substance/in its absence,gene YGL126W,2.8
same,level of expressed mRNA in the presence of chemical substance/in its absence,gene YGL134W,0.5
same,level of expressed mRNA in the presence of chemical substance/in its absence,gene YGL154C,0.8
same,The level of expressed mRNA in the presence of chemical substance/absence: YGL183C,gene YGL183C,1.7
same,level of expressed mRNA in the presence of chemical substance/in its absence,gene YGL209W,3.2
same,The level of expressed mRNA in the presence of chemical substance/absence: YGL223C,gene YGL223C,0.7
same,level of expressed mRNA in the presence of chemical substance/in its absence,gene YGL253W,0.8
same,The level of expressed mRNA in the presence of chemical substance/absence: YGR038W,gene YGR038W,1.1
same,level of expressed mRNA in the presence of chemical substance/in its absence,gene YGR060W,1.4
same,The level of expressed mRNA in the presence of chemical substance/absence: YGR139W,gene YGR139W,2.3
same,The level of expressed mRNA in the presence of chemical substance/absence: YGR156W,gene YGR156W,1.3
same,The level of expressed mRNA in the presence of chemical substance/absence: YGR198W,gene YGR198W,0.9
same,The level of expressed mRNA in the presence of chemical substance/absence: YGR210C,gene YGR210C,1.3
same,The level of expressed mRNA in the presence of chemical substance/absence: YGR211W,gene YGR211W,0.5
same,The level of expressed mRNA in the presence of chemical substance/absence: YGR237C,gene YGR237C,1.1
same,The level of expressed mRNA in the presence of chemical substance/absence: YGR243W,gene YGR243W,0.8
same,The level of expressed mRNA in the presence of chemical substance/absence: YGR250C,gene YGR250C,1.2
same,The level of expressed mRNA in the presence of chemical substance/absence: YGR266W,gene YGR266W,1.1
same,The level of expressed mRNA in the presence of chemical substance/absence: YGR277C,gene YGR277C,0.9
same,level of expressed mRNA in the presence of chemical substance/in its absence,gene YGR282C,2.9
